Measured values taken from patent publication US6809233B2, “DNA sequences for an amino acid transporter plasmids, bacteria, yeasts and plants containing a transporter and their use” (Hoechst Schering AgrEvo GmbH, priority 1992, dated 2004).

Biological target: T1, amino acid transporter (PPP1-20, SEQ ID No. 1) in 22574d::PPP1-20 yeast strain (Arabidopsis thaliana, UniProt Q42400)
T1 construct: expressed in transfected cells; host or cells: Saccharomyces cerevisiae strain 22574d transformed with pFL61-ppp1-20
T1 sequence (Q42400 1-485): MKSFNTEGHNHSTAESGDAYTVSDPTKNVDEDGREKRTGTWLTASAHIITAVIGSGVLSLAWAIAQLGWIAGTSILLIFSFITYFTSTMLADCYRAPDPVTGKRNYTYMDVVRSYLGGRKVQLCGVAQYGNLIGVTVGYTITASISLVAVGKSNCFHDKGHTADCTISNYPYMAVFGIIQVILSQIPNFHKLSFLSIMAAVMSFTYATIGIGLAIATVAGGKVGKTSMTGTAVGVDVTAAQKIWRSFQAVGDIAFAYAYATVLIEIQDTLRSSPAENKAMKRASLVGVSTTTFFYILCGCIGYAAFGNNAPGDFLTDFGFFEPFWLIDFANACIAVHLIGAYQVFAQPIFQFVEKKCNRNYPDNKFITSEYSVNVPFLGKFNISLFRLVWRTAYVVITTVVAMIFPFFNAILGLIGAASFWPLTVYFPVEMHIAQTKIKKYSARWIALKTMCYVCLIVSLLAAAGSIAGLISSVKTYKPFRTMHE
Test: Competition of 14C-L-proline uptake by excess of amino acids and analogues in 22574d::PPP1-20 yeast strain
Type: cell-based
Description: After centrifuging the culture, the cells are washed and taken up in 100 mm tris/HCl pH 4.5, 2 mM MgCl2 and 0.6M sorbitol. Around 100 μL of the suspension was added to a solution of 0.5 mM L-proline plus 1 μCi ^14C labeled L-proline in 100 μL of the same buffer. The uptake of the labeled amino acid was measured by the process described by Cirillo (1989, Meth Enzymol 174: 617-622). The uptake of the labeled amino acid was compared, on the one hand, in co-incubation with protein modifying substance diethyl pyrocarbonate which is an inhibitor of the amino acid transport in membrane vesicles from Beta vulgaris, and, on the other hand, in co-incubation with other protein modifying substances. A competition experiment in which the specificity of the transporter could be read off with various amino acids and analogues is shown in Table II for PPP1-20 and in FIG. 4 for AAP2. An analogous experiment in which a competition for histidine uptake in the line JT16::AAP2 was tested is described in Example 5.

O=C(O)[C@H]1NCC(O)C1O (some centres unmarked) [3,4-di-OH proline]
% remaining transport activity (1 x excess of competitor): 86% | % remaining transport activity (10 x excess of competitor): 49%
